Data as given in US9695155B2, “Herbicidal substituted pyrimidinyloxy benzene compounds” (E. I. DU PONT DE NEMOURS AND COMPANY, priority 2013, dated 2017).

What was measured:
[1] = test system: rice; assay: Test B flooded paddy test; assay type: in vivo, Oryza sativa; details: Flood, 250 g ai/ha; 0 to 100 scale where 0 is no effect and 100 is complete control
In short: (§1)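 2-leaf stage plants; pots flooded to 3 cm, compound added to paddy water, depth maintained. Greenhouse 13–15 d. Visual rating vs untreated controls, 0 (no effect) to 100 (complete control); dash = no result.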

[2] = test system: large (Lg) crabgrass; assay: Test A preemergence; assay type: in vivo, Digitaria sanguinalis; details: for Crabgrass, Large plant response rating (0 to 100 scale): 125 g ai/ha; for Crabgrass, Large plant response rating: 500 g ai/ha, 0 to 100 scale where 0 is no effect and 100 is complete control
In short: (§2)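 Visual 0–100 rating (100 = complete control) taken about 10 d post-treatment relative to untreated checks. Preemergence: directed soil spray on sown loam/sand pots. Postemergence: seedlings 2–10 cm, 1–2 leaf. Non-phytotoxic solvent formulation with surfactant.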

[3] = test system: wheat, winter; assay: Test C postemergence; assay type: in vivo, Triticum aestivum; details: for Plant response rating (0 to 100), Wheat: 16 g ai/ha, 0 is no effect, 100 is complete control; for Wheat plant response rating: 31 g ai/ha; for Wheat plant response rating / Plant response rating, Wheat: scale 0 to 100 (0 no effect, 100 complete control)
In short: (§3)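 Visual injury score versus untreated controls, 0 = no effect, 100 = complete control, taken 13 to 15 days after treatment in the greenhouse. Pre-emergence pots held loam/sand; post-emergence plants grew in sphagnum peat/vermiculite mix and were sprayed at the 1- to 4-leaf stage.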

[4] = test system: sedge, umbrella; assay: Test B flooded paddy test; assay type: in vivo, Cyperus difformis; details: Flood, 250 g ai/ha; 0 to 100 scale where 0 is no effect and 100 is complete control
In short: as §1

[5] = test system: barnyardgrass; assay: Test B flooded paddy test; assay type: in vivo, Echinochloa crus-galli; details: Flood, 250 g ai/ha; 0 to 100 scale where 0 is no effect and 100 is complete control
In short: as §1

[6] = test system: giant foxtail; assay: Test C postemergence; assay type: in vivo, Setaria faberii; details: for Plant response rating (0 to 100), Foxtail, Giant: 16 g ai/ha, 0 is no effect, 100 is complete control; for Foxtail, Giant plant response rating: 31 g ai/ha; for Foxtail, Giant plant response rating / Plant response rating, Foxtail, Giant: scale 0 to 100 (0 no effect, 100 complete control)
In short: as §3

[7] = test system: soybean; assay: Test C postemergence; assay type: in vivo, Glycine max; details: for Plant response rating (0 to 100), Soybean: 16 g ai/ha, 0 is no effect, 100 is complete control; for Soybean plant response rating: 31 g ai/ha; for Soybean plant response rating / Plant response rating, Soybean: scale 0 to 100 (0 no effect, 100 complete control)
In short: as §3

[8] = test system: ragweed; assay: Test C postemergence; assay type: in vivo, Ambrosia elatior; details: for Plant response rating (0 to 100), Ragweed: 16 g ai/ha, 0 is no effect, 100 is complete control; for Ragweed plant response rating: 31 g ai/ha; for Ragweed plant response rating / Plant response rating, Ragweed: scale 0 to 100 (0 no effect, 100 complete control)
In short: as §3

[9] = test system: morningglory; assay: Test C postemergence; assay type: in vivo, Ipomoea coccinea; details: for Plant response rating (0 to 100), Morningglory: 16 g ai/ha, 0 is no effect, 100 is complete control; for Morningglory plant response rating: 31 g ai/ha; for Morningglory plant response rating / Plant response rating, Morningglory: scale 0 to 100 (0 no effect, 100 complete control)
In short: as §3

[10] = test system: morningglory; assay: Test A preemergence; assay type: in vivo, Ipomoea spp.; details: for Morningglory plant response rating (0 to 100 scale): 125 g ai/ha; for Morningglory plant response rating: 500 g ai/ha, 0 to 100 scale where 0 is no effect and 100 is complete control
In short: as §2

[11] = test system: corn; assay: Test C postemergence; assay type: in vivo, Zea mays; details: for Plant response rating (0 to 100), Corn: 16 g ai/ha, 0 is no effect, 100 is complete control; for Corn plant response rating: 31 g ai/ha; for Corn plant response rating / Plant response rating, Corn: scale 0 to 100 (0 no effect, 100 complete control)
In short: as §3

[12] = test system: yellow nutsedge; assay: Test C postemergence; assay type: in vivo, Cyperus esculentus; details: for Plant response rating (0 to 100), Nutsedge, Yellow: 16 g ai/ha, 0 is no effect, 100 is complete control; for Nutsedge, Yellow plant response rating: 31 g ai/ha; for Nutsedge, Yellow plant response rating / Plant response rating, Nutsedge, Yellow: scale 0 to 100 (0 no effect, 100 complete control)
In short: as §3

[13] = test system: Heteranthera limosa; assay: Test B flooded paddy test; assay type: in vivo; details: Flood, 250 g ai/ha; 0 to 100 scale where 0 is no effect and 100 is complete control
In short: as §1

[14] = test system: wheat; assay: Test A postemergence; assay type: in vivo, Triticum aestivum; details: 0 to 100 scale where 0 is no effect and 100 is complete control; for Wheat plant response rating: 125 g ai/ha; for Plant response rating, Wheat: 500 g ai/ha
In short: as §2

[15] = test system: barnyardgrass; assay: Test A postemergence; assay type: in vivo, Echinochloa crus-galli; details: 0 to 100 scale where 0 is no effect and 100 is complete control; for Barnyardgrass plant response rating: 125 g ai/ha; for Plant response rating, Barnyardgrass: 500 g ai/ha
In short: as §2

[16] = test system: velvetleaf; assay: Test A preemergence; assay type: in vivo, Abutilon theophrasti; details: for Velvetleaf plant response rating (0 to 100 scale): 125 g ai/ha; for Velvetleaf plant response rating: 500 g ai/ha, 0 to 100 scale where 0 is no effect and 100 is complete control
In short: as §2

[17] = test system: corn; assay: Test A preemergence; assay type: in vivo, Zea mays; details: for Corn plant response rating (0 to 100 scale): 125 g ai/ha; for Corn plant response rating: 500 g ai/ha, 0 to 100 scale where 0 is no effect and 100 is complete control
In short: as §2

[18] = postemergence, visual rating, 13 to 15 days
[19] = 125 g ai/ha, postemergence, visual rating
[20] = Postemergence, 62 g ai/ha, 13 to 15 days

Clc1cnc(Oc2cccc(Cl)c2-n2cc(Cl)cn2)nc1 [Compound 220]
Plant response rating, Rice [1]: 0 | Crabgrass, Large plant response rating (0 to 100 scale) [2]: 100 | Crabgrass, Large plant response rating [2]: 100 | Plant response rating (0 to 100), Wheat ([3]; postemergence): 0 | Wheat plant response rating [3, 18]: 0 | Plant response rating, Wheat [3, 19]: 0 | Plant response rating, Wheat [3, 20]: 0 | Plant response rating, Sedge, Umbrella [4]: 90 | Plant response rating, Barnyardgrass [5]: 0 | Plant response rating (0 to 100), Foxtail, Giant ([6]; postemergence): 0 | Foxtail, Giant plant response rating [6, 18]: 5 | Plant response rating, Foxtail, Giant [6, 19]: 5 | Plant response rating, Foxtail, Giant [6, 20]: 10 | Plant response rating (0 to 100), Soybean ([7]; postemergence): 40 | Soybean plant response rating [7, 18]: 65 | Plant response rating, Soybean [7, 19]: 95 | Plant response rating, Soybean [7, 20]: 60 | Plant response rating (0 to 100), Ragweed ([8]; postemergence): 10 | Ragweed plant response rating [8, 18]: 10 | Plant response rating, Ragweed [8, 19]: 25 | Plant response rating, Ragweed [8, 20]: 15 | Plant response rating (0 to 100), Morningglory ([9]; postemergence): 15 | Morningglory plant response rating [9, 18]: 50 | Plant response rating, Morningglory [9, 19]: 50 | Plant response rating, Morningglory [9, 20]: 40 | Morningglory plant response rating (0 to 100 scale) [10]: 0 | Morningglory plant response rating [10]: 40 | Plant response rating (0 to 100), Corn ([11]; postemergence): 5 | Corn plant response rating [11, 18]: 10 | Plant response rating, Corn [11, 19]: 10 | Plant response rating, Corn [11, 20]: 10 | Plant response rating (0 to 100), Nutsedge, Yellow ([12]; postemergence): 10 | Nutsedge, Yellow plant response rating [12, 18]: 0 | Plant response rating, Nutsedge, Yellow [12, 19]: 5 | Plant response rating, Nutsedge, Yellow [12, 20]: 0 | Plant response rating, Ducksalad [13]: 100 | Wheat plant response rating [14]: 10 | Plant response rating, Wheat [14]: 60 | Barnyardgrass plant response rating [15]: 90 | Plant response rating, Barnyardgrass [15]: 100 | Velvetleaf plant response rating (0 to 100 scale) [16]: 20 | Velvetleaf plant response rating [16]: 70 | Corn plant response rating (0 to 100 scale) [17]: 0 | Corn plant response rating [17]: 10

FC(F)c1cnn(-c2c(Cl)cccc2Oc2ncc(Cl)cn2)c1 [Compound 192]
Plant response rating, Rice [1]: 0 | Crabgrass, Large plant response rating (0 to 100 scale) [2]: 100 | Crabgrass, Large plant response rating [2]: 100 | Plant response rating (0 to 100), Wheat ([3]; postemergence): 0 | Wheat plant response rating [3, 18]: 0 | Plant response rating, Wheat [3, 19]: 5 | Plant response rating, Wheat [3, 20]: 5 | Plant response rating, Sedge, Umbrella [4]: 85 | Plant response rating, Barnyardgrass [5]: 0 | Plant response rating (0 to 100), Foxtail, Giant ([6]; postemergence): 5 | Foxtail, Giant plant response rating [6, 18]: 5 | Plant response rating, Foxtail, Giant [6, 19]: 10 | Plant response rating, Foxtail, Giant [6, 20]: 5 | Plant response rating (0 to 100), Soybean ([7]; postemergence): 30 | Soybean plant response rating [7, 18]: 30 | Plant response rating, Soybean [7, 19]: 80 | Plant response rating, Soybean [7, 20]: 75 | Plant response rating (0 to 100), Ragweed ([8]; postemergence): 10 | Ragweed plant response rating [8, 18]: 25 | Plant response rating, Ragweed [8, 19]: 45 | Plant response rating, Ragweed [8, 20]: 15 | Plant response rating (0 to 100), Morningglory ([9]; postemergence): 30 | Morningglory plant response rating [9, 18]: 50 | Plant response rating, Morningglory [9, 19]: 35 | Plant response rating, Morningglory [9, 20]: 35 | Morningglory plant response rating (0 to 100 scale) [10]: 30 | Morningglory plant response rating [10]: 100 | Plant response rating (0 to 100), Corn ([11]; postemergence): 0 | Corn plant response rating [11, 18]: 5 | Plant response rating, Corn [11, 19]: 5 | Plant response rating, Corn [11, 20]: 5 | Plant response rating (0 to 100), Nutsedge, Yellow ([12]; postemergence): 5 | Nutsedge, Yellow plant response rating [12, 18]: 5 | Plant response rating, Nutsedge, Yellow [12, 19]: 40 | Plant response rating, Nutsedge, Yellow [12, 20]: 0 | Plant response rating, Ducksalad [13]: 90 | Wheat plant response rating [14]: 0 | Plant response rating, Wheat [14]: 50 | Barnyardgrass plant response rating [15]: 60 | Plant response rating, Barnyardgrass [15]: 90 | Velvetleaf plant response rating (0 to 100 scale) [16]: 90 | Velvetleaf plant response rating [16]: 100 | Corn plant response rating (0 to 100 scale) [17]: 0 | Corn plant response rating [17]: 50
